Laboratory results taken from patent publication US8461176B2, “Enantiomerically enriched aryloazol-2-yl cyanoethylamino compounds, method of making and method of using thereof” (Merial Limited, priority 2008, dated 2013).

What follows are molecules tested on Haemonchus contortus (assay: Method A: screening of activity against Haemonchus contortus L1 larvae in microtitre plate (development to L3 / motility)). Conditions: Haemonchus contortus, 96 h; test concentration 0.0025 ppm; 4 days assessment.
Excerpt: Method A: Screening Method to Test Activity of Compounds Against Haemonchus contortus.

SMILES | inhibition at 0.0025 ppm
CC(C#N)(Cn1nc2c(Cl)cc(Cl)c(Cl)c2n1)NC(=O)c1ccc(C(F)(F)F)cc1 (centres unmarked) [Compound 1.101, N-[1-Cyano-1-methyl-2-(4,5,7-trichloro-2H-benzotriazol-2-yl)-ethyl]-4-trifluoromethylbenzamide] | ≥ 90%
CC(C#N)(Cn1cc2c(Cl)cc(Cl)c(Cl)c2n1)NC(=O)c1ccc(Cl)cc1 (centres unmarked) [Compound 2.061, N-[1-Cyano-1-methyl-2-(4,6,7-trichloro-2H-indazol-2-yl)ethyl]-4-chlorobenzamide] | ≥ 90%
CC(C#N)(Cn1cc2c(Cl)cc(Cl)c(Cl)c2n1)NC(=O)c1ccc(C(F)(F)F)cc1 (centres unmarked) [Compound 2.062, N-[1-Cyano-1-methyl-2-(4,6,7-trichloro-2H-indazol-2-yl)ethyl]-4-trifluoromethylbenzamide] | ≥ 90%
CC(C#N)(Cn1cc2c(Cl)cc(Cl)c(Cl)c2n1)NC(=O)c1ccc(C#N)cc1 (centres unmarked) [Compound 2.063, N-[1-Cyano-1-methyl-2-(4,6,7-trichloro-2H-indazol-2-yl)ethyl]-4-cyanobenzamide] | ≥ 90%
CC(C#N)(Cn1cc2c(Cl)cc(Cl)c(Cl)c2n1)NC(=O)c1ccc(OC(F)(F)C(F)F)cc1 (centres unmarked) [Compound 2.066, N-[1-Cyano-1-methyl-2-(4,6,7-trichloro-2H-indazol-2-yl)ethyl]-4-(1,1,2,2-tetrafluoroethoxy)benzamide] | ≥ 90%
CC(C#N)(Cn1cc2c(Cl)cc(Cl)c(Cl)c2n1)NC(=O)c1ccc(I)cc1 (centres unmarked) [Compound 2.068, N-[1-Cyano-1-methyl-2-(4,6,7-trichloro-2H-indazol-2-yl)ethyl]-4-iodobenzamide] | ≥ 90%
CC(C#N)(Cn1cc2ncc(I)cc2n1)NC(=O)c1ccc(OC(F)(F)F)cc1 (centres unmarked) [Compound 3.026, N-[1-Cyano-2-(6-iodo-2H-pyrazolo[4,3-b]pyridin-2-yl)-1-methylethyl]-4-trifluoromethoxybenzamide] | ≥ 90%

Same assay, conditions: Haemonchus contortus, 96 h; test concentration 0.01 ppm; 4 days assessment

SMILES | inhibition at 0.01 ppm
CC(C#N)(Cn1nc2c(Br)cc(Cl)c(Br)c2n1)NC(=O)c1ccc(C#N)cc1 (centres unmarked) [Compound 1.098, N-[2-(5-Chloro-4,7-dibromo-2H-benzotriazol-2-yl)-1-cyano-1-methylethyl]-4-cyanobenzamide] | ≥ 90%
CC(C#N)(Cn1nc2c(Br)cc(Cl)c(Br)c2n1)NC(=O)c1ccc(OC(F)(F)C(F)F)cc1 (centres unmarked) [Compound 1.099, N-[2-(5-Chloro-4,7-dibromo-2H-benzotriazol-2-yl)-1-cyano-1-methylethyl]-4-(1,1,2,2-tetrafluoroethoxy)benzamide] | ≥ 90%
CC(C#N)(Cn1nc2c(Cl)cc(Cl)c(Cl)c2n1)NC(=O)c1ccc(OC(F)(F)C(F)F)cc1 (centres unmarked) [Compound 1.103, N-[1-Cyano-1-methyl-2-(4,5,7-trichloro-2H-benzotriazol-2-yl)-ethyl]-4-(1,1,2,2-tetrafluoroethoxy)benzamide] | ≥ 90%
CC(C#N)(Cn1cc2c(Cl)cc(Cl)c(Cl)c2n1)NC(=O)c1ccc([N+](=O)[O-])cc1 (centres unmarked) [Compound 2.069, N-[1-Cyano-1-methyl-2-(4,6,7-trichloro-2H-indazol-2-yl)ethyl]-4-nitrobenzamide] | ≥ 90%
CC(C#N)(Cn1cc2c(Cl)cc(Cl)c(Cl)c2n1)NC(=O)c1ccc(C(F)(F)F)cc1F (centres unmarked) [Compound 2.187, N-[1-Cyano-1-methyl-2-(4,6,7-trichloro-2H-indazol-2-yl)ethyl]-2-fluoro-4-trifluoromethylbenzamide] | ≥ 90%
CC(C#N)(Cn1cc2c(Cl)cc(Cl)c(Cl)c2n1)NC(=O)c1ccc(C(F)(F)F)c(F)c1 (centres unmarked) [Compound 2.190, N-[1-Cyano-1-methyl-2-(4,6,7-trichloro-2H-indazol-2-yl)ethyl]-3-fluoro-4-trifluoromethylbenzamide] | ≥ 90%
CC(C#N)(Cn1nc2cc(Cl)cnc2c1Br)NC(=O)c1ccc(OC(F)(F)F)cc1 (centres unmarked) [Compound 3.019, N-[2-(3-Bromo-6-chloro-2H-pyrazolo[4,3-b]pyridin-2-yl)-1-cyano-1-methylethyl]-4-trifluoromethoxybenzamide] | ≥ 90%

Same assay, conditions: Haemonchus contortus, 96 h; test concentration 0.04 ppm; 4 days assessment

SMILES | inhibition at 0.04 ppm
CC(C#N)(Cn1nc2c(Cl)cc(Cl)c(Cl)c2n1)NC(=O)c1ccc(I)cc1 (centres unmarked) [Compound 1.100, N-[1-Cyano-1-methyl-2-(4,5,7-trichloro-2H-benzotriazol-2-yl)-ethyl]-4-iodobenzamide] | ≥ 90%
CC(C#N)(Cn1nc2c(Cl)cc(Cl)c(Cl)c2n1)NC(=O)c1ccc(C#N)cc1 (centres unmarked) [Compound 1.102, N-[1-Cyano-1-methyl-2-(4,5,7-trichloro-2H-benzotriazol-2-yl)-ethyl]-4-cyanobenzamide] | ≥ 90%
CC(C#N)(Cn1nc2c(Cl)cc(Cl)c(Cl)c2n1)NC(=O)c1ccc(C(F)(F)F)cc1F (centres unmarked) [Compound 1.143, N-[1-Cyano-1-methyl-2-(4,5,7-trichloro-2H-benzotriazol-2-yl)-ethyl]-2-fluoro-4-trifluoromethylbenzamide] | ≥ 90%
CC(C#N)(Cn1cc2c(Cl)cc(Cl)c(Cl)c2n1)NC(=O)c1ccc(Oc2ccccc2)cc1 (centres unmarked) [Compound 2.067, N-[1-Cyano-1-methyl-2-(4,6,7-trichloro-2H-indazol-2-yl)ethyl]-4-phenoxybenzamide] | ≥ 90%
CC(C#N)(Cn1cc2c(Cl)cc(Cl)c(Cl)c2n1)NC(=O)c1ccc(F)cc1F (centres unmarked) [Compound 2.228, N-[1-Cyano-1-methyl-2-(4,6,7-trichloro-2H-indazol-2-yl)ethyl]-2,4-difluorobenzamide] | ≥ 90%
CC(C#N)(Cn1cc2c(Cl)cc(Cl)c(Cl)c2n1)NC(=O)c1ccc(Cl)cc1Cl (centres unmarked) [Compound 2.230, 2,4-Dichloro-N-[1-cyano-1-methyl-2-(4,6,7-trichloro-2H-indazol-2-yl)ethyl]benzamide] | ≥ 90%

Same assay, conditions: Haemonchus contortus, 96 h; test concentration 0.15 ppm; 4 days assessment

SMILES | inhibition at 0.15 ppm
C=Cc1cc(Cl)cc2nn(CC(C)(C#N)NC(=O)c3ccc(OC(F)(F)F)cc3)nc12 (centres unmarked) [Compound 1.075, N-[2-(6-Chloro-4-vinyl-2H-benzotriazol-2-yl)-1-cyano-1-methylethyl]-4-trifluoromethoxybenzamide] | ≥ 90%
CC(C#N)(Cn1nc2c(Cl)cc(Cl)c(Cl)c2n1)NC(=O)c1ccc(C(F)(F)F)c(F)c1 (centres unmarked) [Compound 1.146, N-[1-Cyano-1-methyl-2-(4,5,7-trichloro-2H-benzotriazol-2-yl)-ethyl]-3-fluoro-4-trifluoromethylbenzamide] | ≥ 90%
CCOc1c2cc(Cl)ccc2nn1CC(C)(C#N)NC(=O)c1ccc(OC(F)(F)F)cc1 (centres unmarked) [Compound 2.014, N-[2-(5-Chloro-3-ethoxy-2H-indazol-2-yl)-1-cyano-1-methylethyl]-4-trifluoromethoxybenzamide] | ≥ 90%
COc1c2ccccc2nn1CC(C)(C#N)NC(=O)c1ccc(OC(F)(F)F)cc1 (centres unmarked) [Compound 2.016, N-[1-Cyano-2-(3-methoxy-2H-indazol-2-yl)-1-methylethyl]-4-trifluoromethoxybenzamide] | ≥ 90%
CCOc1c2ccc(Cl)cc2nn1CC(C)(C#N)NC(=O)c1ccc(OC(F)(F)F)cc1 (centres unmarked) [Compound 2.027, N-[2-(6-Chloro-3-ethoxy-2H-indazol-2-yl)-1-cyano-1-methylethyl]-4-trifluoromethoxybenzamide] | ≥ 90%
COc1ccc(C(=O)NC(C)(C#N)Cn2cc3c(Cl)cc(Cl)c(Cl)c3n2)cc1F (centres unmarked) [Compound 2.227, N-[1-Cyano-1-methyl-2-(4,6,7-trichloro-2H-indazol-2-yl)ethyl]-3-fluoro-4-methoxybenzamide] | ≥ 90%
CC(C#N)(Cn1cc2c(Cl)cc(Cl)c(Cl)c2n1)NC(=O)c1cccc(Br)c1 (centres unmarked) [Compound 2.229, 3-Bromo-N-[1-cyano-1-methyl-2-(4,6,7-trichloro-2H-indazol-2-yl)ethyl]benzamide] | ≥ 90%
CC(C#N)(Cn1cc2ncc(Br)cc2n1)NC(=O)c1ccc(Cl)cc1 (centres unmarked) [Compound 3.046, N-[2-(6-Bromo-2H-pyrazolo[4,3-b]pyridin-2-yl)-1-cyano-1-methylethyl]-4-chlorobenzamide] | ≥ 90%

Same assay, conditions: Haemonchus contortus, 96 h; test concentration 0.3 ppm; 4 days assessment

SMILES | inhibition at 0.3 ppm
CC(C#N)(Cn1nc2c(Cl)cc(Cl)c(Cl)c2n1)NC(=O)c1ccc(OC(F)(F)F)cc1 (single isomer, unassigned; (-)) [Compound 1.097, (−)-N-[1-Cyano-1-methyl-2-(4,5,7-trichloro-2H-benzotriazol-2-yl)-ethyl]-4-trifluoromethoxybenzamide] | < 90%

Same assay, conditions: Haemonchus contortus, 96 h; test concentration 0.6 ppm; 4 days assessment

SMILES | inhibition at 0.6 ppm
CC(C#N)(Cn1nc2cc(Cl)c(Cl)cc2n1)NC(=O)c1ccc(OC(F)(F)F)cc1 (centres unmarked) [Compound 1.010, N-[1-Cyano-2-(5,6-dichloro-2H-benzotriazol-2-yl)-1-methylethyl]-4-trifluoromethoxybenzamide] | ≥ 90%
CCCOc1c2ccc(Cl)cc2nn1CC(C)(C#N)NC(=O)c1ccc(OC(F)(F)F)cc1 (centres unmarked) [Compound 2.029, N-[2-(6-Chloro-3-propoxy-2H-indazol-2-yl)-1-cyano-1-methylethyl]-4-trifluoromethoxybenzamide] | ≥ 90%
CCCCOc1c2ccc(Cl)cc2nn1CC(C)(C#N)NC(=O)c1ccc(OC(F)(F)F)cc1 (centres unmarked) [Compound 2.031, N-[2-(6-Chloro-3-butoxy-2H-indazol-2-yl)-1-cyano-1-methylethyl]-4-trifluoromethoxybenzamide] | ≥ 90%
CC(C#N)(Cn1cc2nc(Br)c(Br)cc2n1)NC(=O)c1ccc(OC(F)(F)F)cc1 (centres unmarked) [Compound 3.042, N-[1-Cyano-2-(5,6-dibromo-2H-pyrazolo[4,3-b]pyridin-2-yl)-1-methylethyl]-4-trifluoromethoxybenzamide] | ≥ 90%
CC(C#N)(Cn1cc2nc(Br)ccc2n1)NC(=O)c1ccc(OC(F)(F)F)cc1 (centres unmarked) [Compound 3.044, N-[1-Cyano-2-(5-bromo-2H-pyrazolo[4,3-b]pyridin-2-yl)-1-methylethyl]-4-trifluoromethoxybenzamide] | ≥ 90%
CC(C#N)(Cn1cc2ncccc2n1)NC(=O)c1ccc(OC(F)(F)F)cc1 (centres unmarked) [Compound 3.045, N-[1-Cyano-1-methyl-2-(2H-pyrazolo[4,3-b]pyridin-2-yl)ethyl]-4-trifluoromethoxybenzamide] | ≥ 90%
